Legend:
SF-295 cell line = test: Test C MTT assay in schweinfurthin sensitive SF-295 cell line; format: cell-based, human
Text: (§1) The National Cancer Institute 60 human tumor cell line anti-cancer assay has been used for indicating the schweinfurthin-like activity of various analogues. Additionally, a three pronged approach that allows a more rapid turn around can be used. This three pronged testing scheme involves 1) MTT assay in schweinfurthin sensitive human glioma derived SF-295 cell line; 2) MTT assay in the schweinfurthin resistant human non-small cell lung cancer derived cell line A549; and 3) microscopic observation of cell morphology changes at 24 and 48 hours. Compounds displaying schweinfurthin-like activity show a dramatic change in cell morphology at concentrations consistent with anti-cancer activity. This three pronged testing scheme is a very simple method that has successfully identified compounds with and without schweinfurthin-like activity. Accordingly, in one embodiment the invention provides a method for identifying a compound with schweinfurthin-like activity comprising, subjecting the compound to 1) an MTT assay in a schweinfurthin sensitive human glioma derived SF-295 cell line; 2) an MTT assay in the schweinfurthin resistant human non-small cell lung cancer derived cell line A549; and 3) a microscopic observation of cell morphology changes at one or more preselected time points (e.g. at about 24 or 48 hours).

[1] = system: SF-295 vs. A549 cell lines; test: Test C three pronged testing scheme for schweinfurthin-like activity; format: cell-based, human; settings: for schweinfurthin-like activity: three pronged scheme: MTT SF-295, MTT A549, morphology
Text: as §1

[2] = Fluorescence properties of target compounds (Table 1); format: physicochemical; settings: for Absorbtion Maximum / Emission Maximum / Extinction Coefficient: Concentration 50 uM; for Extinction Coefficient: in M-1 cm-1 (unit assumed)
Text: This shift to the green region for the fluorescence emission allows cellular studies on these compounds without any interference from autofluroescence.

A549 cell line = test: Test C MTT assay in schweinfurthin resistant A549 cell line; format: cell-based, human; settings: A549 lung cancer line
Text: as §1

[3] = Compound stability (no method given); format: physicochemical
A-549 cells = test: Test A cellular morphology (phalloidin/DAPI staining), A-549; format: cell-based, human
Procedure: (§2) Cell Culture—SF-295 cells were maintained in RPMI 1640 supplemented with 10% fetal calf serum, and penstreptamycin. A-549 cells were maintained in F-12 media with 10% fetal calf serum and penstreptamycin. Both cell lines were incubated at 37° C. and 5% CO2.
(§3) Cellular Morphology—Cells were plated on sterilized coverslips in 6-well plates and allowed to reach 65% confluency before treatment with indicated compounds. At the conclusion of the treatment interval, cells were rinsed and fixed with 3.7% formaldehyde for 15 minutes. After subsequent rinses in PBS, cells were permeabilized with 0.2% triton X-100 for 4 minutes and rinsed in PBS. Cells were then incubated with 1% BSA for 30 minutes before incubation with phalloidin stain (Molecular Probes, Eugene, Oreg.) for 20 minutes. At the completion of staining interval, cells were rinsed and mounted using Vectashield mounting media containing DAPI (Vector laboratories, Inc., Burlingame, Calif.). Slides were imaged using a Bio-Rad Multi-photon microscope and processed using Image-J software.

SF-295 cells = test: Test A cellular morphology (phalloidin/DAPI staining), SF-295; format: cell-based, human
Procedure: as §2, §3

COc1cc(/C=C/c2cc(O)c(/C=C/c3ccc([N+](=O)[O-])cc3)c(O)c2)cc2c1O[C@]1(C)CC[C@@H](O)C(C)(C)[C@H]1C2 [Compound 219]
activity relative to standard 3-deoxyschweinfurthin B (SF-295 cell line; SF-295 cell line): almost identical activity to the standard 3-deoxyschweinfurthin B | potency rank among compounds tested (SF-295 cell line; Test C scheme): most potent of these compounds | schweinfurthin-like activity [1]: still shows the significant drop in activity in the A549 line vs. the SF-295 line | stokes shift compared with amine compounds 227, 232 and 237 [2]: larger stokes shifts than the amine compounds | Absorbtion Maximum [2]: 426 | Emission Maximum [2]: 593 | Extinction Coefficient [2]: 26500 | potency relative to 3-deoxyschweinfurthin B (A549 cell line): almost an order of magnitude more potent than 3-deoxyschweinfurthin B

COc1cc(/C=C/c2cc3c(c(OC)c2)O[C@]2(C)CC[C@@H](O)C(C)(C)[C@H]2C3)cc(O)c1/C=C/c1ccc([N+](=O)[O-])cc1 [Compound 225]
activity relative to the parent resorcinol (SF-295 cell line; assay not specified): only slightly diminished activity | schweinfurthin-like activity [1]: displayed activity as expected | stokes shift compared with amine compounds 227, 232 and 237 [2]: larger stokes shifts than the amine compounds | Absorbtion Maximum [2]: 429 | Emission Maximum [2]: 557 | Extinction Coefficient [2]: 17902 | stability relative to the parent resorcinol [3]: much improved stability

COc1cc(C=Cc2cc(O)c(CC=C(C)CCC=C(C)C)c(O)c2)cc2c1OC1(C)CCC(O)C(C)(C)C1C2 (stereo not shown) [3-deoxyschweinfurthin B]
cell morphology (A-549 cells; 500 nM, 24 hours or 48 hours): does not induce a morphologic change | cell morphology (SF-295 cells; 500 nM, 24 hours): morphologic characteristics similar to control cells | cell morphology (SF-295 cells; 500 nM, 48 hours): characteristic changes in cell morphology | cell morphology changes induced by schweinfurthins (SF-295 cells; time points beyond 24 hours): a decrease in cell area and a reduction in F-actin

COc1cc(/C=C/c2cc3c(c(OC)c2)O[C@]2(C)C[C@@H](O)[C@@H](O)C(C)(C)[C@H]2C3)cc(O)c1/C=C/c1ccc([N+](=O)[O-])cc1 [Compound 235]
stokes shift compared with amine compounds 227, 232 and 237 [2]: larger stokes shifts than the amine compounds

COc1cc(/C=C/c2cc3c(c(OC)c2)O[C@]2(C)C[C@@H](O)[C@@H](O)C(C)(C)[C@H]2C3)cc(O)c1/C=C/c1ccc(N)cc1 [Compound 237]
potency relative to 3-deoxyschweinfurthin B ([1]; cell line not specified): neither of the amine substituted analogues (227 and 237) were more potent than 3-deoxyschweinfurthin B | activity relative to 3-deoxy compound 227 ([1]; dihydroxylated A-ring vs. 3-deoxy): not significantly more active than the 3-deoxy compound 227 | schweinfurthin-like activity [1]: did show all of the hall marks of schweinfurthin like activity

C[C@@H](N)[C@H]1CC[C@H](C(=O)Nc2ccncc2)CC1 [Compound Y-27632]
cell morphology (A-549 cells; 10 μM): induces ruffled F-actin at the edges of the A-549 cells | cell morphology (SF-295 cells; 10 μM): caused jagged F-actin at the periphery and long slender projections to form

Reference: patent publication US8637685B2, “Schweinfurthin analogues” (University of Iowa Research Foundation, priority 2008, dated 2014)
